Results published in US10323022B2, “Pyrrolidinyl urea, pyrrolidinyl thiourea and pyrrolidinyl guanidine compounds as TrkA kinase inhibitors” (Array BioPharma Inc., priority 2011, dated 2019).

What follows are compounds tested against TrkA (Homo sapiens (Human), UniProt P04629) (assay: TrkA Omnia Assay). Details: averaged IC50; 20 nM enzyme, 500 μM ATP, 10 μM peptide substrate.
Sequence of TrkA (P04629 33-796): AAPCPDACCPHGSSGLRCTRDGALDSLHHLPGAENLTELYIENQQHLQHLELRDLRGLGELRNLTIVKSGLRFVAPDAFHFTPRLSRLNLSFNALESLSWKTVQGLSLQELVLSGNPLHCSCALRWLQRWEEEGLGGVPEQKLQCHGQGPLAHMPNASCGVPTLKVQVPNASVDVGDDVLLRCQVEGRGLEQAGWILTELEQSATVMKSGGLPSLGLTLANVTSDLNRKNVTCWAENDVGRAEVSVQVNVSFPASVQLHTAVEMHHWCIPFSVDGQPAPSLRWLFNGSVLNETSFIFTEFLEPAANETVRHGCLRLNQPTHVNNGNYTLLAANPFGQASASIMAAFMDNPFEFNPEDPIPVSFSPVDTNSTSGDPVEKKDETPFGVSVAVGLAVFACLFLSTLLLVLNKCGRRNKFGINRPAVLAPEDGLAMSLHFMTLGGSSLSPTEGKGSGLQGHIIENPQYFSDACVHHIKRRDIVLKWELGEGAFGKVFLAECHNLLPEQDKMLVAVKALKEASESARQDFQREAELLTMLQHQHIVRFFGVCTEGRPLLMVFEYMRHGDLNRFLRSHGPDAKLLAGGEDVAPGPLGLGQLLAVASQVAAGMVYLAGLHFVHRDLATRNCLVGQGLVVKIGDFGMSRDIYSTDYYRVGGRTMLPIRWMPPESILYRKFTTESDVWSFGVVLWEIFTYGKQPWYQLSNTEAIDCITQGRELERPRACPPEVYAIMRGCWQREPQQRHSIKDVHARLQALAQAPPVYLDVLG
Type: biochemical
Method in brief: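 Continuous fluorescent kinase read-out (ex 360 nm, em 485 nm) over 70 min, with initial rates fitted to 4- or 5-parameter logistic curves for IC50. Final conditions: 500 μM ATP, 10 μM Omnia Tyr Peptide #4, 20 nM TrkA, MOPS pH 7.5 buffer with MgCl2 and Triton X-100; enzyme and compound preincubated 10 min at ambient temperature.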
Compound `CC[C@@H](O)COc1nn(-c2ccccc2)c(NC(=O)N[C@@H]2CN(CCOC)C[C@H]2c2ccc(F)c(F)c2)c1C` [Example 380, 1-((3S,4R)-4-(3,4-difluorophenyl)-1-(2-methoxyethyl)pyrrolidin-3-yl)-3-(3-((R)-2-hydroxybutoxy)-4-methyl-1-phenyl-1H-pyrazol-5-yl)urea] has an IC50 of under 100 nM.
Compound `CCOC(=O)c1nn(-c2ccccc2)c(NC(=O)N[C@@H]2CN(CCOC)C[C@H]2c2ccc(F)c(F)c2)c1Br` [Example 381, ethyl 4-bromo-5-(3-((3S,4R)-4-(3,4-difluorophenyl)-1-(2-methoxyethyl)pyrrolidin-3-yl)ureido)-1-phenyl-1H-pyrazole-3-carboxylate] has an IC50 of under 100 nM.
Compound `COCCN1C[C@@H](NC(=O)Nc2c(C)c(-c3cnn(CCOC)c3)nn2-c2ccccc2)[C@H](c2ccc(F)cc2)C1` [Example 382, 1-((3S,4R)-4-(4-fluorophenyl)-1-(2-methoxyethyl)pyrrolidin-3-yl)-3-(1′-(2-methoxyethyl)-4-methyl-1-phenyl-1H,1′H-[3,4′-bipyrazol]-5-yl)urea] has an IC50 of under 100 nM.
`COCCN1C[C@@H](NC(=O)Nc2c(C)c(-c3cnn(CCOC)c3)nn2-c2ccccc2)[C@H](c2cccc(F)c2)C1` [Example 383, 1-((3S,4R)-4-(3-fluorophenyl)-1-(2-methoxyethyl)pyrrolidin-3-yl)-3-(1′-(2-methoxyethyl)-4-methyl-1-phenyl-1H,1′H-[3,4′-bipyrazol]-5-yl)urea] was tested, and the IC50 was under 100 nM.
For `COCCN1C[C@@H](NC(=O)Nc2c(C)c(-c3cnn(C)n3)nn2-c2ccccc2)[C@H](c2cccc(F)c2)C1` [Example 384, 1-((3S,4R)-4-(3-fluorophenyl)-1-(2-methoxyethyl)pyrrolidin-3-yl)-3-(4-methyl-3-(2-methyl-2H-1,2,3-triazol-4-yl)-1-phenyl-1H-pyrazol-5-yl)urea], the IC50 was under 100 nM.
`COCCN1C[C@@H](NC(=O)Nc2c(C)c(-c3cnn(C)n3)nn2-c2ccccc2)[C@H](c2ccc(F)cc2)C1` [Example 385, 1-((3S,4R)-4-(4-fluorophenyl)-1-(2-methoxyethyl)pyrrolidin-3-yl)-3-(4-methyl-3-(2-methyl-2H-1,2,3-triazol-4-yl)-1-phenyl-1H-pyrazol-5-yl)urea] showed an IC50 of under 100 nM.
Compound `COCCN1C[C@@H](NC(=O)Nc2c(C)c(OCCN3CCOCC3)nn2-c2ccccc2)[C@H](c2ccc(F)c(F)c2)C1` [Example 386, 1-((3S,4R)-4-(3,4-difluorophenyl)-1-(2-methoxyethyl)pyrrolidin-3-yl)-3-(4-methyl-3-(2-morpholinoethoxy)-1-phenyl-1H-pyrazol-5-yl)urea] has an IC50 of under 100 nM.
`COCCN1C[C@@H](NC(=O)Nc2c(C)c(OCCN3C(=O)c4ccccc4C3=O)nn2-c2ccccc2)[C@H](c2ccc(F)c(F)c2)C1` [Example 387, 1-((3S,4R)-4-(3,4-difluorophenyl)-1-(2-methoxyethyl)pyrrolidin-3-yl)-3-(3-(2-(1,3-dioxoisoindolin-2-yl)ethoxy)-4-methyl-1-phenyl-1H-pyrazol-5-yl)urea] was tested, and the IC50 was under 100 nM.
`COCCN1C[C@@H](NC(=O)Nc2c(C)c(OCCN3CCN(C(=O)OC(C)(C)C)CC3)nn2-c2ccccc2)[C@H](c2ccc(F)c(F)c2)C1` [Example 388, tert-butyl 4-(2-((5-(3-((3S,4R)-4-(3,4-difluorophenyl)-1-(2-methoxyethyl)pyrrolidin-3-yl)ureido)-4-methyl-1-phenyl-1H-pyrazol-3-yl)oxy)ethyl)piperazine-1-carboxylate] showed an IC50 of under 100 nM.
Compound `COCCN1C[C@@H](NC(=O)Nc2c3ccccc3nn2-c2ccccc2)[C@H](c2ccccc2)C1` [Example 389] has an IC50 of under 100 nM.
Work on `COCCN1C[C@@H](NC(=O)Nc2c3ccccc3nn2-c2ccccc2)[C@H](c2ccc(F)c(F)c2)C1` [Example 390, 1-((3S,4R)-4-(3,4-difluorophenyl)-1-(2-methoxyethyl)pyrrolidin-3-yl)-3-(2-phenyl-2H-indazol-3-yl)urea] yielded an IC50 of under 100 nM.
With `COCCN1C[C@@H](NC(=O)Nc2c(C)c(OCc3ncn(C)n3)nn2-c2ccccc2)[C@H](c2ccc(F)c(F)c2)C1` [Example 391, 1-((3S,4R)-4-(3,4-difluorophenyl)-1-(2-methoxyethyl)pyrrolidin-3-yl)-3-(4-methyl-3-((1-methyl-1H-1,2,4-triazol-3-yl)methoxy)-1-phenyl-1H-pyrazol-5-yl)urea] the IC50 was under 100 nM.
For `COCCN1C[C@@H](NC(=O)Nc2c(C)c(OC[C@@H]3COC(C)(C)O3)nn2-c2ccccc2)[C@H](c2cc(F)cc(F)c2)C1` [Example 392, 1-((3S,4R)-4-(3,5-difluorophenyl)-1-(2-methoxyethyl)pyrrolidin-3-yl)-3-(3-(((R)-2,2-dimethyl-1,3-dioxolan-4-yl)methoxy)-4-methyl-1-phenyl-1H-pyrazol-5-yl)urea], the IC50 was under 100 nM.
With `COCCN1C[C@@H](NC(=O)Nc2c(C)c(OC[C@H]3COC(C)(C)O3)nn2-c2ccccc2)[C@H](c2cc(F)cc(F)c2)C1` [Example 393, 1-((3S,4R)-4-(3,5-difluorophenyl)-1-(2-methoxyethyl)pyrrolidin-3-yl)-3-(3-(((S)-2,2-dimethyl-1,3-dioxolan-4-yl)methoxy)-4-methyl-1-phenyl-1H-pyrazol-5-yl)urea] the IC50 was under 100 nM.
`CCOc1nn(-c2cnccn2)c(NC(=O)N[C@@H]2CN(CCOC)C[C@H]2c2ccc(F)c(F)c2)c1C` [Example 394, 1-((3S,4R)-4-(3,4-difluorophenyl)-1-(2-methoxyethyl)pyrrolidin-3-yl)-3-(3-ethoxy-4-methyl-1-(pyrazin-2-yl)-1H-pyrazol-5-yl)urea] gave an IC50 of 100 to 1000 nM.
`COCCN1C[C@@H](NC(=O)Nc2c3c(nn2-c2ccnnc2)CCC3)[C@H](c2ccc(F)c(F)c2)C1` [Example 395, 1-((3S,4R)-4-(3,4-difluorophenyl)-1-(2-methoxyethyl)pyrrolidin-3-yl)-3-(2-(pyridazin-4-yl)-2,4,5,6-tetrahydrocyclopenta[c]pyrazol-3-yl)urea] showed an IC50 of 100 to 1000 nM.
In the case of `COCCN1C[C@@H](NC(=O)Nc2c(C)c(OC(=O)N(C)C)nn2-c2ccccc2)[C@H](c2ccc(F)c(F)c2)C1` [Example 396, 5-(3-((3S,4R)-4-(3,4-difluorophenyl)-1-(2-methoxyethyl)pyrrolidin-3-yl)ureido)-4-methyl-1-phenyl-1H-pyrazol-3-yl dimethylcarbamate], the IC50 is reported as under 100 nM.
`COCCN1C[C@@H](NC(=O)Nc2c(C)c(OC(=O)N3CCOCC3)nn2-c2ccccc2)[C@H](c2ccc(F)c(F)c2)C1` [Example 397, 5-(3-((3S,4R)-4-(3,4-difluorophenyl)-1-(2-methoxyethyl)pyrrolidin-3-yl)ureido)-4-methyl-1-phenyl-1H-pyrazol-3-yl morpholine-4-carboxylate] was tested, and the IC50 was under 100 nM.
Compound `COCCN1C[C@@H](NC(=O)Nc2c(C)c(OC[C@H]3COC(C)(C)O3)nn2-c2ccccc2)[C@H](c2cc(F)c(F)c(F)c2)C1` [Example 398, 1-(3-(((S)-2,2-dimethyl-1,3-dioxolan-4-yl)methoxy)-4-methyl-1-phenyl-1H-pyrazol-5-yl)-3-((3S,4R)-1-(2-methoxyethyl)-4-(3,4,5-trifluorophenyl)pyrrolidin-3-yl)urea] has an IC50 of under 100 nM.
Compound `COCCN1C[C@@H](NC(=O)Nc2c(C)c(OC[C@@H]3COC(C)(C)O3)nn2-c2ccccc2)[C@H](c2cc(F)c(F)c(F)c2)C1` [Example 399, 1-(3-(((R)-2,2-dimethyl-1,3-dioxolan-4-yl)methoxy)-4-methyl-1-phenyl-1H-pyrazol-5-yl)-3-((3S,4R)-1-(2-methoxyethyl)-4-(3,4,5-trifluorophenyl)pyrrolidin-3-yl)urea] has an IC50 of under 100 nM.
Compound `COCCN1C[C@@H](NC(=O)Nc2c(C)c(OC[C@H](C)O[Si](C)(C)C(C)(C)C)nn2-c2ccccc2)[C@H](c2cc(F)c(F)c(F)c2)C1` [Example 400, 1-(3-((S)-2-(tert-butyldimethylsilyloxy)propoxy)-4-methyl-1-phenyl-1H-pyrazol-5-yl)-3-((3S,4R)-1-(2-methoxyethyl)-4-(3,4,5-trifluorophenyl)pyrrolidin-3-yl)urea] has an IC50 of 100 to 1000 nM.
For `COCCN1C[C@@H](NC(=O)Nc2c(C)c(OCC(C)(C)O)nn2-c2ccccc2)[C@H](c2cc(F)c(F)c(F)c2)C1` [Example 401, 1-(3-(2-hydroxy-2-methylpropoxy)-4-methyl-1-phenyl-1H-pyrazol-5-yl)-3-((3S,4R)-1-(2-methoxyethyl)-4-(3,4,5-trifluorophenyl)pyrrolidin-3-yl)urea], the IC50 was under 100 nM.
`COCCN1C[C@@H](NC(=O)Nc2c(C)c(OC[C@H](COC)O[Si](C)(C)C(C)(C)C)nn2-c2ccccc2)[C@H](c2ccc(F)c(F)c2)C1` [Example 402, 1-(3-((S)-2-(tert-butyldimethylsilyloxy)-3-methoxypropoxy)-4-methyl-1-phenyl-1H-pyrazol-5-yl)-3-((3S,4R)-4-(3,4-difluorophenyl)-1-(2-methoxyethyl)pyrrolidin-3-yl)urea_] was tested, and the IC50 was 100 to 1000 nM.
With `COCCN1C[C@@H](NC(=O)Nc2c(Cl)c(COC)nn2-c2ccccc2)[C@H](c2ccc(F)c(F)c2)C1` [Example 403, 1-(4-chloro-3-(methoxymethyl)-1-phenyl-1H-pyrazol-5-yl)-3-((3S,4R)-4-(3,4-difluorophenyl)-1-(2-methoxyethyl)pyrrolidin-3-yl)urea] the IC50 was under 100 nM.
In the case of `COCCN1C[C@@H](NC(=O)Nc2c(Br)c(COC)nn2-c2ccccc2)[C@H](c2ccc(F)c(F)c2)C1` [Example 404, 1-(4-bromo-3-(methoxymethyl)-1-phenyl-1H-pyrazol-5-yl)-3-((3S,4R)-4-(3,4-difluorophenyl)-1-(2-methoxyethyl)pyrrolidin-3-yl)urea], the IC50 is reported as under 100 nM.
With `COCCN1C[C@@H](NC(=O)Nc2c(Cl)c(COC)nn2-c2ccccc2)[C@H](c2cc(F)cc(F)c2)C1` [Example 405, 1-(4-chloro-3-(methoxymethyl)-1-phenyl-1H-pyrazol-5-yl)-3-((3S,4R)-4-(3,5-difluorophenyl)-1-(2-methoxyethyl)pyrrolidin-3-yl)urea] the IC50 was under 100 nM.
